# Active and inactive are the calls of the source. No cut-off for these calls is given here.
# System: H3N2 subtype
# Assay: Antiviral activity against influenza A virus A/Aichi/2/68 (H3N2) infected in MDCK cells at 10 uM by plaque titration assay relative to control
# Type: functional
Structure (SMILES),Activity (A/Aichi/2/1968(H3N2)),Activity [%]
N#C[C@]12CCC3(OCCO3)C3=CO[C@H](Cc4cc(OCc5ccccn5)ccc41)[C@@H]32,Active,–
N#C[C@]12CCC3(OCCO3)C3=CO[C@H](Cc4cc(OCc5ccncc5)ccc41)[C@@H]32,Active,–
N#C[C@]12CCC3(OCCO3)C3=CO[C@H](Cc4cc(OCc5cccnc5)ccc41)[C@@H]32,Active,–
N#C[C@]12CCC3(OCCO3)C3=CO[C@H](Cc4cc(OCc5cc(F)cc(F)c5)ccc41)[C@@H]32,–,30
N#C[C@]12CCC3(OCCO3)C3=CO[C@H](Cc4cc(-c5c(F)cc(F)cc5F)ccc41)[C@@H]32,–,70
N#C[C@]12CCC3(OCCO3)C3=CO[C@H](Cc4cc(-c5ccccc5)ccc41)[C@@H]32,–,70
N#C[C@]12CCC3(OCCO3)C3=CO[C@H](Cc4cc(OS(=O)(=O)C(F)(F)F)ccc41)[C@@H]32,inactive,–
N#C[C@]12CCC3(OCCO3)C3=CO[C@H](Cc4cc(OC(F)(F)F)ccc41)[C@@H]32,Active,–
N#C[C@]12CCC3(OCCO3)C3=CO[C@H](Cc4cc(OCc5ccc(COc6ccc7c(c6)C[C@H]6OC=C8[C@H]6[C@@]7(C#N)CCC86OCCO6)cc5)ccc41)[C@@H]32,Active,–
N#C[C@]12CCC3(OCCO3)C3=CO[C@H](Cc4cc(OCc5ccccc5)ccc41)[C@@H]32,–,30

# From ChEMBL document CHEMBL1156900, “Synthesis and anti-influenza virus activity of dihydrofuran-fused perhydrophenanthrenes with a benzyloxy-type side-chain” (2010)
